Measured values from PubChem BioAssay (NCI).
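Step 1: Grow cells in 96-well plates. Step 2: Expose to compound for 48 hours at 5 concentrations. Step 3: Interpolate endpoints linearly; if unreached, use highest concentration. TGI denotes the concentration required for complete inhibition of growth.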

Experiments:
Assay in all cases: NCI-60 cell line screen, 48 h
HOP-62 NSCLC = tested on: HOP-62 NSCLC
DMS 114 small cell lung = tested on: DMS 114 small cell lung
HOP-92 NSCLC = tested on: HOP-92 NSCLC
A549 NSCLC = tested on: A549 NSCLC
M14 melanoma = tested on: M14 melanoma
NCI-H460 lung = tested on: NCI-H460 lung
SNB-75 CNS = tested on: SNB-75 CNS
SW-620 colon = tested on: SW-620 colon
CCRF-CEM leukemia = tested on: CCRF-CEM leukemia
NCI-H522 lung = tested on: NCI-H522 lung
SF-539 CNS = tested on: SF-539 CNS
SF-295 CNS = tested on: SF-295 CNS
MOLT-4 leukemia = tested on: MOLT-4 leukemia
LXFL 529 NSCLC = tested on: LXFL 529 NSCLC
OVCAR-5 ovarian = tested on: OVCAR-5 ovarian
HT29 colon = tested on: HT29 colon
UACC-257 melanoma = tested on: UACC-257 melanoma
U251 CNS = tested on: U251 CNS
SK-MEL-2 melanoma = tested on: SK-MEL-2 melanoma
RXF 393 renal = tested on: RXF 393 renal
HCT-116 colon = tested on: HCT-116 colon
M19-MEL melanoma = tested on: M19-MEL melanoma
KM12 colon = tested on: KM12 colon
SF-268 CNS = tested on: SF-268 CNS
DMS 273 small cell lung = tested on: DMS 273 small cell lung
SR leukemia = tested on: SR leukemia
SNB-78 CNS = tested on: SNB-78 CNS
RPMI-8226 leukemia = tested on: RPMI-8226 leukemia
SNB-19 CNS = tested on: SNB-19 CNS
NCI-H226 lung = tested on: NCI-H226 lung
A498 renal = tested on: A498 renal
SN12C renal = tested on: SN12C renal
786-0 renal = tested on: 786-0 renal
SK-MEL-5 melanoma = tested on: SK-MEL-5 melanoma
UO-31 renal = tested on: UO-31 renal
OVCAR-8 ovarian = tested on: OVCAR-8 ovarian
KM20L2 colon = tested on: KM20L2 colon
HCC-2998 colon = tested on: HCC-2998 colon
K-562 leukemia = tested on: K-562 leukemia
OVCAR-3 ovarian = tested on: OVCAR-3 ovarian
HL-60(TB) leukemia = tested on: HL-60(TB) leukemia
SK-MEL-28 melanoma = tested on: SK-MEL-28 melanoma
RXF-631 renal = tested on: RXF-631 renal
XF 498 CNS = tested on: XF 498 CNS
ACHN renal = tested on: ACHN renal
IGROV1 ovarian = tested on: IGROV1 ovarian
LOX IMVI melanoma = tested on: LOX IMVI melanoma
EKVX NSCLC = tested on: EKVX NSCLC
NCI-H23 lung = tested on: NCI-H23 lung
UACC-62 melanoma = tested on: UACC-62 melanoma
DLD-1 colon = tested on: DLD-1 colon
MALME-3M melanoma = tested on: MALME-3M melanoma
TK-10 renal = tested on: TK-10 renal
HCT-15 colon = tested on: HCT-15 colon
MCF7 breast = tested on: MCF7 breast
SK-OV-3 ovarian = tested on: SK-OV-3 ovarian
CAKI-1 renal = tested on: CAKI-1 renal
OVCAR-4 ovarian = tested on: OVCAR-4 ovarian
MDA-MB-435 = tested on: MDA-MB-435
COLO 205 colon = tested on: COLO 205 colon
MDA-N = tested on: MDA-N
DU-145 prostate = tested on: DU-145 prostate
T-47D breast = tested on: T-47D breast
BT-549 breast = tested on: BT-549 breast
PC-3 prostate = tested on: PC-3 prostate
MDA-MB-231 breast = tested on: MDA-MB-231 breast
HS 578T breast = tested on: HS 578T breast

SMILES: CC1=C(C(=O)Nc2ccccc2)C(c2ccc([N+](=O)[O-])cc2)C(C(=O)Nc2ccccc2)=C(C)N1
- TGI (HOP-62 NSCLC): > 100 µM
- TGI (DMS 114 small cell lung): 52.1 µM
- TGI (HOP-92 NSCLC): 60.9 µM
- TGI (A549 NSCLC): > 100 µM
- TGI (M14 melanoma): 41.8 µM
- TGI (NCI-H460 lung): 70.3 µM
- TGI (SNB-75 CNS): 82.1 µM
- TGI (SW-620 colon): 38.5 µM
- TGI (CCRF-CEM leukemia): 39.8 µM
- TGI (NCI-H522 lung): 63.8 µM
- TGI (SF-539 CNS): 44.9 µM
- TGI (SF-295 CNS): > 100 µM
- TGI (MOLT-4 leukemia): > 100 µM
- TGI (LXFL 529 NSCLC): 46.5 µM
- TGI (OVCAR-5 ovarian): > 100 µM
- TGI (HT29 colon): 41.3 µM
- TGI (UACC-257 melanoma): 53.8 µM
- TGI (U251 CNS): 38.6 µM
- TGI (SK-MEL-2 melanoma): 31.4 µM
- TGI (RXF 393 renal): 46.2 µM
- TGI (HCT-116 colon): 37.2 µM
- TGI (M19-MEL melanoma): 32.1 µM
- TGI (KM12 colon): 34.8 µM
- TGI (SF-268 CNS): 57.9 µM
- TGI (DMS 273 small cell lung): 72.4 µM
- TGI (SR leukemia): 45.7 µM
- TGI (SNB-78 CNS): > 100 µM
- TGI (RPMI-8226 leukemia): 73.3 µM
- TGI (SNB-19 CNS): 32 µM
- TGI (NCI-H226 lung): > 100 µM
- TGI (A498 renal): 93 µM
- TGI (SN12C renal): 79.3 µM
- TGI (786-0 renal): 59 µM
- TGI (SK-MEL-5 melanoma): 61.7 µM
- TGI (UO-31 renal): > 100 µM
- TGI (OVCAR-8 ovarian): 35.8 µM
- TGI (KM20L2 colon): 35.3 µM
- TGI (HCC-2998 colon): 45.8 µM
- TGI (K-562 leukemia): 63.5 µM
- TGI (OVCAR-3 ovarian): > 100 µM
- TGI (HL-60(TB) leukemia): 34.1 µM
- TGI (SK-MEL-28 melanoma): 88.5 µM
- TGI (RXF-631 renal): > 100 µM
- TGI (XF 498 CNS): 49.2 µM
- TGI (ACHN renal): > 100 µM
- TGI (IGROV1 ovarian): > 100 µM
- TGI (LOX IMVI melanoma): 30.5 µM
- TGI (EKVX NSCLC): 46.2 µM
- TGI (NCI-H23 lung): 64.7 µM
- TGI (UACC-62 melanoma): 27.9 µM
- TGI (DLD-1 colon): > 100 µM
- TGI (MALME-3M melanoma): > 100 µM
- TGI (TK-10 renal): > 100 µM
- TGI (HCT-15 colon): 50.9 µM

SMILES: CC1=C(C(=O)Nc2ccccc2C)C(c2ccc(C3C(C(=O)Nc4ccccc4C)=C(C)NC(C)=C3C(=O)Nc3ccccc3C)cc2)C(C(=O)Nc2ccccc2C)=C(C)N1
- TGI (HOP-62 NSCLC): 42.1 µM
- TGI (DMS 114 small cell lung): 14 µM
- TGI (HOP-92 NSCLC): 20.6 µM
- TGI (A549 NSCLC): 27.8 µM
- TGI (M14 melanoma): 8.23 µM
- TGI (MCF7 breast): 19.5 µM
- TGI (NCI-H460 lung): 24.9 µM
- TGI (SNB-75 CNS): 30.9 µM
- TGI (SW-620 colon): 6.3 µM
- TGI (CCRF-CEM leukemia): 7.82 µM
- TGI (SK-OV-3 ovarian): 28.8 µM
- TGI (NCI-H522 lung): 3.72 µM
- TGI (SF-539 CNS): 8.57 µM
- TGI (SF-295 CNS): 17.1 µM
- TGI (MOLT-4 leukemia): 9.28 µM
- TGI (CAKI-1 renal): 22.7 µM
- TGI (LXFL 529 NSCLC): 10.5 µM
- TGI (OVCAR-5 ovarian): 31.8 µM
- TGI (HT29 colon): 4.62 µM
- TGI (UACC-257 melanoma): 9.84 µM
- TGI (OVCAR-4 ovarian): 22.1 µM
- TGI (U251 CNS): 7.34 µM
- TGI (SK-MEL-2 melanoma): 31.6 µM
- TGI (RXF 393 renal): 17.6 µM
- TGI (HCT-116 colon): 7.17 µM
- TGI (M19-MEL melanoma): 12.3 µM
- TGI (KM12 colon): 4.75 µM
- TGI (MDA-MB-435): 14.3 µM
- TGI (SF-268 CNS): 7.18 µM
- TGI (DMS 273 small cell lung): 11.4 µM
- TGI (SR leukemia): 8.56 µM
- TGI (COLO 205 colon): 14.5 µM
- TGI (SNB-78 CNS): 16.7 µM
- TGI (MDA-N): 19.9 µM
- TGI (RPMI-8226 leukemia): 7.85 µM
- TGI (SNB-19 CNS): 29.4 µM
- TGI (NCI-H226 lung): 28.7 µM
- TGI (A498 renal): 29 µM
- TGI (DU-145 prostate): 32.1 µM
- TGI (SN12C renal): 2.85 µM
- TGI (786-0 renal): 17.3 µM
- TGI (SK-MEL-5 melanoma): 24.6 µM
- TGI (T-47D breast): 20.5 µM
- TGI (UO-31 renal): 26.7 µM
- TGI (OVCAR-8 ovarian): 8.57 µM
- TGI (KM20L2 colon): 12.9 µM
- TGI (HCC-2998 colon): 9.31 µM
- TGI (K-562 leukemia): 25.4 µM
- TGI (BT-549 breast): 11.5 µM
- TGI (OVCAR-3 ovarian): 18.5 µM
- TGI (HL-60(TB) leukemia): 6.15 µM
- TGI (SK-MEL-28 melanoma): 4.26 µM
- TGI (RXF-631 renal): 28.4 µM
- TGI (XF 498 CNS): 35.6 µM
- TGI (ACHN renal): 16 µM
- TGI (IGROV1 ovarian): 9.5 µM
- TGI (LOX IMVI melanoma): 3.63 µM
- TGI (EKVX NSCLC): 19.2 µM
- TGI (NCI-H23 lung): 9.6 µM
- TGI (UACC-62 melanoma): 4.65 µM
- TGI (DLD-1 colon): 5.66 µM
- TGI (PC-3 prostate): 16.1 µM
- TGI (MALME-3M melanoma): 6.13 µM
- TGI (TK-10 renal): 24.2 µM
- TGI (MDA-MB-231 breast): 15.2 µM
- TGI (HCT-15 colon): 23.5 µM
- TGI (HS 578T breast): 55.3 µM

SMILES: O=C(Cc1nc2ccccc2s1)Nc1ccc(Cl)cc1
- TGI (HOP-62 NSCLC): > 100 µM
- TGI (A549 NSCLC): > 100 µM
- TGI (M14 melanoma): > 100 µM
- TGI (NCI-H460 lung): > 100 µM
- TGI (SNB-75 CNS): > 100 µM
- TGI (SW-620 colon): > 100 µM
- TGI (CCRF-CEM leukemia): > 100 µM
- TGI (SK-OV-3 ovarian): > 100 µM
- TGI (NCI-H522 lung): > 100 µM
- TGI (SF-539 CNS): > 100 µM
- TGI (SF-295 CNS): > 100 µM
- TGI (MOLT-4 leukemia): > 100 µM
- TGI (CAKI-1 renal): > 100 µM
- TGI (LXFL 529 NSCLC): > 100 µM
- TGI (OVCAR-5 ovarian): > 100 µM
- TGI (HT29 colon): > 100 µM
- TGI (UACC-257 melanoma): > 100 µM
- TGI (OVCAR-4 ovarian): > 100 µM
- TGI (U251 CNS): > 100 µM
- TGI (SK-MEL-2 melanoma): > 100 µM
- TGI (RXF 393 renal): > 100 µM
- TGI (HCT-116 colon): > 100 µM
- TGI (M19-MEL melanoma): > 100 µM
- TGI (KM12 colon): > 100 µM
- TGI (SF-268 CNS): > 100 µM
- TGI (DMS 273 small cell lung): > 100 µM
- TGI (SR leukemia): > 100 µM
- TGI (COLO 205 colon): > 100 µM
- TGI (SNB-78 CNS): > 100 µM
- TGI (SNB-19 CNS): > 100 µM
- TGI (NCI-H226 lung): > 100 µM
- TGI (A498 renal): > 100 µM
- TGI (SN12C renal): > 100 µM
- TGI (786-0 renal): > 100 µM
- TGI (SK-MEL-5 melanoma): > 100 µM
- TGI (UO-31 renal): > 100 µM
- TGI (OVCAR-8 ovarian): > 100 µM
- TGI (KM20L2 colon): > 100 µM
- TGI (HCC-2998 colon): > 100 µM
- TGI (K-562 leukemia): > 100 µM
- TGI (OVCAR-3 ovarian): > 100 µM
- TGI (HL-60(TB) leukemia): > 100 µM
- TGI (SK-MEL-28 melanoma): > 100 µM
- TGI (XF 498 CNS): > 100 µM
- TGI (ACHN renal): > 100 µM
- TGI (IGROV1 ovarian): > 100 µM
- TGI (LOX IMVI melanoma): > 100 µM
- TGI (EKVX NSCLC): > 100 µM
- TGI (NCI-H23 lung): > 100 µM
- TGI (UACC-62 melanoma): > 100 µM
- TGI (DLD-1 colon): > 100 µM
- TGI (MALME-3M melanoma): > 100 µM
- TGI (TK-10 renal): > 100 µM
